Molecular target: T1, Recombinant human mPGES-1 (Homo sapiens, UniProt O14684)
T1 sequence (O14684 1-152): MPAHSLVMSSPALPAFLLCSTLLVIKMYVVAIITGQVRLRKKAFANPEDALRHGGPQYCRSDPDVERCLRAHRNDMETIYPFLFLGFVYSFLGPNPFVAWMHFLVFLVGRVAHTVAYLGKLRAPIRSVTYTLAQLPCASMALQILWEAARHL
Assay: In-vitro mPGES-1 enzyme inhibition assay (PGE2 formation from PGH2, HTRF detection)
Type: biochemical
Conditions: for inhibition at 1 µM: 1 μM test compound, read-out: Percentage inhibition at 1 μM; for inhibition at 1 µM / inhibition at 10 µM: recombinant human mPGES-1 microsomal fraction; for inhibition at 10 µM: 10 μM test compound, read-out: Percentage inhibition at 10 μM; for IC50: class symbols, selected examples
Description: In-Vitro Protocol for Screening of mPGES-1 Inhibitors: mPGES-1 (microsomal prostaglandin E synthase-1) is a microsomal enzyme that converts endoperoxide substrate PGH2 (prostaglandin H2) to product PGE2 (prostaglandin E2) by isomerization in the presence of reduced glutathione (GSH). mPGES-1 inhibitors were screened by assessing their ability to inhibit formation of PGE2 from PGH2 in presence of mPGES-1 using anti-PGE2 antibody based detection method. […] Assay was set up using crude microsomal fractions at protein concentration of 40-60 μg/mL. […] Final concentration of DMSO in reaction was 0.5% (v/v). Negative controls comprised of all assay reagents except the enzyme. Positive controls comprised of enzyme reaction in the absence of any inhibitor. […] Reaction was stopped by addition of Stannous chloride (11 mg/ml) and PGE2 levels were measured ([…] et al. […] Inhibition of mPGES-1 enzyme activity was measured using percent of reaction occurring in the positive control. Concentration response curves were plotted using percent inhibition of maximum enzyme reaction. IC50 value was calculated from concentration response curve by nonlinear regression analysis using GraphPad PRISM software.

Question: `Cc1nnc(NC(=O)c2cc3nc(Nc4c(Cl)cccc4Cl)[nH]c3c3c2OC(C)(C)C3)s1` [Example-38, 2-[(2,6-Dichlorophenyl)amino]-7,7-dimethyl-N-(5-methyl-1,3,4-thiadiazol-2-yl)-7,8-dihydro-1H-furo[3,2-e]benzimidazole-5-carboxamide] was tested. Which inhibition at 1 µM did it give?
Answer: The inhibition at 1 µM was 74.5%.

Question: And the inhibition at 10 µM?
Answer: Its inhibition at 10 µM is 81.5%.

Question: Which results are given for `CC1(C)Cc2c(c(C(=O)NCc3ccc(F)cc3)cc3nc(Nc4c(F)cccc4Cl)[nH]c23)O1` [Example-39, 2-[(2-Chloro-6-fluorophenyl)amino]-N-(4-fluorobenzyl)-7,7-dimethyl-7,8-dihydro-1H-furo[3,2-e]benzimidazole-5-carboxamide]?
Answer: inhibition at 1 µM: 92.5%; inhibition at 10 µM: 70.7%; IC50: < 50 nM

Question: How did the inhibition at 1 µM turn out when `Cc1cnc(NC(=O)c2cc3nc(Nc4c(Cl)cccc4Cl)[nH]c3c3c2OC(C)(C)C3)s1` [Example-40, 2-[(2,6-Dichlorophenyl)amino]-7,7-dimethyl-N-(5-methyl-1,3-thiazol-2-yl)-7,8-dihydro-1H-furo[3,2-e]benzimidazole-5-carboxamide] was run?
Answer: Its inhibition at 1 µM is 88.7%.

Question: What about the inhibition at 10 µM of the same molecule?
Answer: The inhibition at 10 µM was 94.6%.

Question: And the IC50?
Answer: The IC50 was < 50 nM.

Question: With `CCC(C)(C)NC(=O)c1cc2nc(Nc3c(Cl)cccc3Cl)[nH]c2c2c1OC(C)(C)C2` [Example-41, 2-[(2,6-Dichlorophenyl)amino]-7,7-dimethyl-N-(2-methylbutan-2-yl)-7,8-dihydro-1H-furo[3,2-e]benzimidazole-5-carboxamide] as the molecule, how does the inhibition at 1 µM read?
Answer: The inhibition at 1 µM was 99.2%.

Question: What about the inhibition at 10 µM of the same molecule?
Answer: Its inhibition at 10 µM is 95.7%.

Question: What about the IC50 of the same molecule?
Answer: Its IC50 is < 50 nM.

Question: Which inhibition at 1 µM does the source give for `CC1(C)Cc2c(c(C(=O)NCC3CCCCC3)cc3nc(Nc4c(F)cccc4Cl)[nH]c23)O1` [Example-42, 2-[(2-Chloro-6-fluorophenyl)amino]-N-(cyclohexylmethyl)-7,7-dimethyl-7,8-dihydro-1H-furo[3,2-e]benzimidazole-5-carboxamide] here?
Answer: Its inhibition at 1 µM is 83.2%.

Question: What about the inhibition at 10 µM of the same molecule?
Answer: Its inhibition at 10 µM is 89.9%.

Question: And the IC50?
Answer: The IC50 was < 50 nM.

Question: Which results are given for `CC(O)CNC(=O)c1cc2nc(Nc3c(Cl)cccc3Cl)[nH]c2c2c1OC(C)(C)C2` (stereo not drawn) [Example-43, 2-[(2,6-Dichlorophenyl)amino]-N-(2-hydroxypropyl)-7,7-dimethyl-7,8-dihydro-1H-furo[3,2-e]benzimidazole-5-carboxamide]?
Answer: inhibition at 1 µM: 43.8%; inhibition at 10 µM: 72.3%; IC50: < 50 nM

Question: For `CC(C)CCNC(=O)c1cc2nc(Nc3c(Cl)cccc3Cl)[nH]c2c2c1OC(C)(C)C2` [Example-46, 2-[(2,6-Dichlorophenyl)amino]-7,7-dimethyl-N-(3-methylbutyl)-7,8-dihydro-1H-furo[3,2-e]benzimidazole-5-carboxamide], which inhibition at 1 µM is on record?
Answer: Its inhibition at 1 µM is 100%.

Question: What about the inhibition at 10 µM of the same molecule?
Answer: The inhibition at 10 µM was 100%.

Question: And the IC50?
Answer: The IC50 was < 50 nM.

Question: For `Cc1cc2c(o1)c(C(=O)NCc1ccc(F)cc1)cc1nc(Nc3c(F)cccc3Cl)[nH]c12` [Example-48, 2-[(2-Chloro-6-fluorophenyl)amino]-N-(4-fluorobenzyl)-7-methyl-1H-furo[3,2-e]benzimidazole-5-carboxamide], which inhibition at 1 µM is on record?
Answer: Its inhibition at 1 µM is 70.8%.

Question: And the inhibition at 10 µM?
Answer: Its inhibition at 10 µM is 96.7%.

Question: What does the source list for `Cc1cc2c(o1)c(C(=O)NCC1CCCCC1)cc1nc(Nc3c(F)cccc3Cl)[nH]c12` [Example-49, 2-[(2-Chloro-6-fluorophenyl)amino]-N-(cyclohexylmethyl)-7-methyl-1H-furo[3,2-e]benzimidazole-5-carboxamide]?
Answer: inhibition at 1 µM: 91.6%; inhibition at 10 µM: 96.1%

Question: Which results are given for `Cc1cc2c(o1)c(C(=O)NCCC(C)C)cc1nc(Nc3c(Cl)cncc3Cl)[nH]c12` [Example-50, 2-[(3,5-Dichloropyridin-4-yl)amino]-7-methyl-N-(3-methylbutyl)-1H-furo[3,2-e]benzimidazole-5-carboxamide]?
Answer: inhibition at 1 µM: 89.2%; inhibition at 10 µM: 99.3%

Question: For `CC1(C)Cc2c(c(C(=O)Nc3ccccc3F)cc3nc(Nc4c(F)cccc4Cl)[nH]c23)O1` [Example-51, 2-[(2-Chloro-6-fluorophenyl)amino]-N-(2-fluorophenyl)-7,7-dimethyl-7,8-dihydro-1H-furo[3,2-e]benzimidazole-5-carboxamide], which inhibition at 1 µM is on record?
Answer: The inhibition at 1 µM was 96.9%.

Question: And the inhibition at 10 µM?
Answer: Its inhibition at 10 µM is 99.4%.

Question: What about the IC50 of the same molecule?
Answer: Its IC50 is < 50 nM.

Question: For `CC(C)(C)CC(C)(C)NC(=O)c1cc2nc(Nc3c(F)cccc3Cl)[nH]c2c2c1OC(C)(C)C2` [Example-52, 2-[(2-Chloro-6-fluorophenyl)amino]-7,7-dimethyl-N-(2,4,4-trimethylpentan-2-yl)-7,8-dihydro-1H-furo[3,2-e]benzimidazole-5-carboxamide], which inhibition at 1 µM is on record?
Answer: Its inhibition at 1 µM is 94.3%.

Question: And the inhibition at 10 µM?
Answer: Its inhibition at 10 µM is 96%.

Question: What about the IC50 of the same molecule?
Answer: Its IC50 is < 50 nM.

Question: `CC1(C)Cc2c(c(C(=O)Nc3nc(C(C)(C)C)cs3)cc3nc(Nc4c(F)cccc4Cl)[nH]c23)O1` [Example-53, N-(4-tert-Butyl-1,3-thiazol-2-yl)-2-[(2-chloro-6-fluorophenyl)amino]-7,7-dimethyl-7,8-dihydro-1H-furo[3,2-e]benzimidazole-5-carboxamide] was tested. Which inhibition at 1 µM did it give?
Answer: The inhibition at 1 µM was 47.2%.

Question: What about the inhibition at 10 µM of the same molecule?
Answer: The inhibition at 10 µM was 85.4%.

Question: With `Cc1csc(NC(=O)c2cc3nc(Nc4c(F)cccc4Cl)[nH]c3c3c2OC(C)(C)C3)n1` [Example-54, 2-[(2-Chloro-6-fluorophenyl)amino]-7,7-dimethyl-N-(4-methyl-1,3-thiazol-2-yl)-7,8-dihydro-1H-furo[3,2-e]benzimidazole-5-carboxamide] as the molecule, how does the inhibition at 1 µM read?
Answer: The inhibition at 1 µM was 79.2%.

Question: And the inhibition at 10 µM?
Answer: The inhibition at 10 µM was 92.8%.

Question: Which results are given for `Cc1nc(NC(=O)c2cc3nc(Nc4c(F)cccc4Cl)[nH]c3c3c2OC(C)(C)C3)sc1C` [Example-55, 2-[(2-Chloro-6-fluorophenyl)amino]-N-(4,5-dimethyl-1,3-thiazol-2-yl)-7,7-dimethyl-7,8-dihydro-1H-furo[3,2-e]benzimidazole-5-carboxamide]?
Answer: inhibition at 1 µM: 91.8%; inhibition at 10 µM: 94.2%; IC50: > 100 nM

Question: Which inhibition at 1 µM does the source give for `CC1(C)Cc2c(c(C(=O)Nc3cccc(F)c3)cc3nc(Nc4c(F)cccc4Cl)[nH]c23)O1` [Example-56, 2-[(2-Chloro-6-fluorophenyl)amino]-N-(3-fluorophenyl)-7,7-dimethyl-7,8-dihydro-1H-furo[3,2-e]benzimidazole-5-carboxamide] here?
Answer: The inhibition at 1 µM was 96%.

Question: And the inhibition at 10 µM?
Answer: The inhibition at 10 µM was 98.2%.

Question: And the IC50?
Answer: The IC50 was < 50 nM.

Question: What does the source list for `Cc1cc2c(o1)c(C(=O)NCC1CC1)cc1nc(Nc3c(Cl)cccc3Cl)[nH]c12` [Example-57, N-(Cyclopropylmethyl)-2-[(2,6-dichlorophenyl)amino]-7-methyl-1H-furo[3,2-e]benzimidazole-5-carboxamide]?
Answer: inhibition at 1 µM: 61.7%; inhibition at 10 µM: 88.2%

Question: For `CC1(C)Cc2c(c(C(=O)NN3CCCC3)cc3nc(Nc4c(Cl)cccc4Cl)[nH]c23)O1` [Example-58, 2-[(2,6-Dichlorophenyl)amino]-7,7-dimethyl-N-(pyrrolidin-1-yl)-7,8-dihydro-1H-furo[3,2-e]benzimidazole-5-carboxamide], which inhibition at 1 µM is on record?
Answer: Its inhibition at 1 µM is 63.3%.

Question: What about the inhibition at 10 µM of the same molecule?
Answer: The inhibition at 10 µM was 95.4%.

Question: What does the source list for `CC1(C)Cc2c(c(C(=O)Nc3ccc(C#N)cc3)cc3nc(Nc4c(Cl)cccc4Cl)[nH]c23)O1` [Example-59, N-(4-Cyanophenyl)-2-[(2,6-dichlorophenyl)amino]-7,7-dimethyl-7,8-dihydro-1H-furo[3,2-e]benzimidazole-5-carboxamide]?
Answer: inhibition at 1 µM: 96.8%; inhibition at 10 µM: 98.1%; IC50: < 50 nM

Question: How did the inhibition at 1 µM turn out when `CN(C)CCNC(=O)c1cc2nc(Nc3c(Cl)cccc3Cl)[nH]c2c2c1OC(C)(C)C2` [Example-61, 2-[(2,6-Dichlorophenyl)amino]-N-[2-(dimethylamino)ethyl]-7,7-dimethyl-7,8-dihydro-1H-furo[3,2-e]benzimidazole-5-carboxamide] was run?
Answer: The inhibition at 1 µM was 6.5%.

Question: What about the inhibition at 10 µM of the same molecule?
Answer: Its inhibition at 10 µM is 69.8%.
